Laboratory results reported in article PMC5218480 (PLoS ONE, 2017).

Test system: MV-4-11 cells
Experiment: Gene expression microarray analysis (Affymetrix PrimeView) and GSEA
Format: cell-based, human
Parameters: RFU PODN (11730768_x_at) / Fold change /veh PODN (11730768_x_at) / RFU LINC00158 (11744669_a_at) / Fold change /veh LINC00158 (11744669_a_at) / RFU DUSP10 (11751237_a_at) / Fold change /veh DUSP10 (11751237_a_at) / RFU ID3 (11757404_x_at) / Fold change /veh ID3 (11757404_x_at) / RFU PLEKHG5 (11737974_s_at) / Fold change /veh PLEKHG5 (11737974_s_at) / RFU LRRC4B (11730491_at) / Fold change /veh LRRC4B (11730491_at) / RFU GIMAP4 (11747438_a_at) / Fold change /veh GIMAP4 (11747438_a_at) / RFU KRT8 (11758183_x_at) / Fold change /veh KRT8 (11758183_x_at) / RFU CNN1 (11734310_a_at) / Fold change /veh CNN1 (11734310_a_at) / RFU VPS37D (11726825_at) / Fold change /veh VPS37D (11726825_at) / RFU C10orf10 (11716522_x_at) / Fold change /veh C10orf10 (11716522_x_at) / RFU KIR2DL2 /// KIR2DL4 /// KIR2DL5A /// KIR2DL5B /// KIR2DS1 /// KIR2DS2 /// KIR2DS3 /// KIR2DS4 /// KIR3DL3 /// KIR3DL3 /// KIR3DS1 (11738374_at) / Fold change /veh KIR2DL2 /// KIR2DL4 /// KIR2DL5A /// KIR2DL5B /// KIR2DS1 /// KIR2DS2 /// KIR2DS3 /// KIR2DS4 /// KIR3DL3 /// KIR3DL3 /// KIR3DS1 (11738374_at) / RFU C1QL1 (11718748_at) / Fold change /veh C1QL1 (11718748_at) / RFU TMPRSS4 (11747572_a_at) / Fold change /veh TMPRSS4 (11747572_a_at) / RFU HAMP (11756126_x_at) / Fold change /veh HAMP (11756126_x_at) / RFU RNFT2 (11725882_a_at) / Fold change /veh RNFT2 (11725882_a_at) / RFU NR4A2 (11747474_a_at) / Fold change /veh NR4A2 (11747474_a_at) / RFU ABCC12 (11746883_a_at) / Fold change /veh ABCC12 (11746883_a_at) / RFU TMEM136 (11760407_x_at) / Fold change /veh TMEM136 (11760407_x_at) / RFU CLDN22 /// WWC2 (11732394_at) / Fold change /veh CLDN22 /// WWC2 (11732394_at) / RFU HLA-DPB1 (11760878_x_at) / Fold change /veh HLA-DPB1 (11760878_x_at) / RFU SPINT1 (11716480_a_at) / Fold change /veh SPINT1 (11716480_a_at) / RFU GAP43 (11754022_s_at) / Fold change /veh GAP43 (11754022_s_at) / RFU A4GNT (11735810_at) / Fold change /veh A4GNT (11735810_at) / RFU PRB3 (11715151_x_at) / Fold change /veh PRB3 (11715151_x_at) / RFU TUBB4B (11761932_at) / Fold change /veh TUBB4B (11761932_at) / RFU CAPN14 (11732068_a_at) / Fold change /veh CAPN14 (11732068_a_at) / RFU TMCC2 (11721928_a_at) / Fold change /veh TMCC2 (11721928_a_at) / RFU IRGQ (11745062_a_at) / Fold change /veh IRGQ (11745062_a_at) / RFU FAM174B (11720279_a_at) / Fold change /veh FAM174B (11720279_a_at) / RFU TMPRSS4 (11748680_a_at) / Fold change /veh TMPRSS4 (11748680_a_at) / RFU FAM212B (11763350_a_at) / Fold change /veh FAM212B (11763350_a_at) / RFU PLEKHG5 (11743358_a_at) / Fold change /veh PLEKHG5 (11743358_a_at) / RFU ZSCAN30 (11745921_a_at) / Fold change /veh ZSCAN30 (11745921_a_at) / RFU CMKLR1 (11741424_a_at) / Fold change /veh CMKLR1 (11741424_a_at) / RFU LOC101060620 /// MAPK8IP1 (11723275_at) / Fold change /veh LOC101060620 /// MAPK8IP1 (11723275_at) / RFU SPTSSB (11747773_x_at) / Fold change /veh SPTSSB (11747773_x_at) / RFU PRSS12 (11739890_at) / Fold change /veh PRSS12 (11739890_at) / RFU BIN1 (11741810_x_at) / Fold change /veh BIN1 (11741810_x_at) / RFU WNT11 (11732464_a_at) / Fold change /veh WNT11 (11732464_a_at) / RFU C10orf10 (11716521_a_at) / Fold change /veh C10orf10 (11716521_a_at) / RFU C5orf56 (11738089_at) / Fold change /veh C5orf56 (11738089_at) / RFU CYB561 (11721691_x_at) / Fold change /veh CYB561 (11721691_x_at) / RFU ANKRD19P (11752326_a_at) / Fold change /veh ANKRD19P (11752326_a_at) / RFU OR2T12 /// OR2T33 /// OR2T8 (11738714_s_at) / Fold change /veh OR2T12 /// OR2T33 /// OR2T8 (11738714_s_at) / RFU VCAN (11748164_a_at) / Fold change /veh VCAN (11748164_a_at) / RFU JSRP1 (11732532_at) / Fold change /veh JSRP1 (11732532_at) / RFU KRTAP10-11 (11738290_x_at) / Fold change /veh KRTAP10-11 (11738290_x_at) / RFU MYO3A (11730013_a_at) / Fold change /veh MYO3A (11730013_a_at) / RFU EBF3 (11725865_a_at) / Fold change /veh EBF3 (11725865_a_at) / RFU CAMK2N1 (11719241_x_at) / Fold change /veh CAMK2N1 (11719241_x_at) / RFU C5orf56 (11738088_a_at) / Fold change /veh C5orf56 (11738088_a_at) / RFU OLFML3 (11715873_a_at) / Fold change /veh OLFML3 (11715873_a_at) / RFU LOC100653217 /// NTM (11731650_a_at) / Fold change /veh LOC100653217 /// NTM (11731650_a_at) / RFU MAPK11 (11762145_a_at) / Fold change /veh MAPK11 (11762145_a_at) / RFU FIZ1 (11724087_x_at) / Fold change /veh FIZ1 (11724087_x_at) / RFU OASL (11726364_x_at) / Fold change /veh OASL (11726364_x_at) / RFU SOX15 (11748057_x_at) / Fold change /veh SOX15 (11748057_x_at) / RFU CD79A (11719716_a_at) / Fold change /veh CD79A (11719716_a_at) / RFU HIST1H1D (11736915_at) / Fold change /veh HIST1H1D (11736915_at) / RFU CASKIN2 (11723855_a_at) / Fold change /veh CASKIN2 (11723855_a_at) / RFU LOC730098 (11760151_x_at) / Fold change /veh LOC730098 (11760151_x_at) / RFU OR4N2 (11742367_at) / Fold change /veh OR4N2 (11742367_at) / RFU PRRT2 (11749266_a_at) / Fold change /veh PRRT2 (11749266_a_at) / RFU SNX32 (11753110_a_at) / Fold change /veh SNX32 (11753110_a_at) / RFU CDHR5 (11726645_a_at) / Fold change /veh CDHR5 (11726645_a_at) / RFU RCAN1 (11760418_a_at) / Fold change /veh RCAN1 (11760418_a_at) / RFU FAM167A (11723789_a_at) / Fold change /veh FAM167A (11723789_a_at) / RFU FAM26E (11764081_at) / Fold change /veh FAM26E (11764081_at) / RFU ISYNA1 (11749810_s_at) / Fold change /veh ISYNA1 (11749810_s_at) / RFU ACY1 (11761880_at) / Fold change /veh ACY1 (11761880_at) / RFU 11764098_at / Fold change /veh 11764098_at / RFU SAMD14 (11745864_x_at) / Fold change /veh SAMD14 (11745864_x_at) / RFU NPB (11741838_a_at) / Fold change /veh NPB (11741838_a_at) / RFU TMPRSS6 (11731388_a_at) / Fold change /veh TMPRSS6 (11731388_a_at) / RFU KRTAP10-2 (11738614_at) / Fold change /veh KRTAP10-2 (11738614_at) / RFU ARHGAP8 /// PRR5-ARHGAP8 (11727945_x_at) / Fold change /veh ARHGAP8 /// PRR5-ARHGAP8 (11727945_x_at) / RFU KRTAP5-7 /// NADSYN1 (11734609_at) / Fold change /veh KRTAP5-7 /// NADSYN1 (11734609_at) / RFU RASL12 (11751679_a_at) / Fold change /veh RASL12 (11751679_a_at) / RFU CDKN2B (11736163_a_at) / Fold change /veh CDKN2B (11736163_a_at) / RFU PRF1 (11729649_at) / Fold change /veh PRF1 (11729649_at) / RFU, ZNF638 /// ZNF638-IT1 / Fold change vs veh, ZNF638 /// ZNF638-IT1 / RFU, PANK3 / Fold change vs veh, PANK3 / RFU, SH3YL1 / Fold change vs veh, SH3YL1 / RFU, ZEB2 / Fold change vs veh, ZEB2 / RFU, NRIP1 / Fold change vs veh, NRIP1 / RFU, PTTG1IP / Fold change vs veh, PTTG1IP / RFU, CAPN2 / Fold change vs veh, CAPN2 / RFU, MED14 / Fold change vs veh, MED14 / RFU, SNORA58 / Fold change vs veh, SNORA58 / RFU, C1orf63 / Fold change vs veh, C1orf63 / RFU, LRRFIP1 / Fold change vs veh, LRRFIP1 / RFU, NDUFAF7 / Fold change vs veh, NDUFAF7 / RFU, SLC12A2 / Fold change vs veh, SLC12A2 / RFU, IBTK / Fold change vs veh, IBTK / RFU, ESF1 / Fold change vs veh, ESF1 / Fold change vs veh, TMEM50B / RFU, TAOK1 / Fold change vs veh, TAOK1 / RFU, ACBD3 / Fold change vs veh, ACBD3 / RFU, TMA16 / Fold change vs veh, TMA16 / RFU, RWDD3 / Fold change vs veh, RWDD3 / RFU, BCAT1 / Fold change vs veh, BCAT1 / RFU, EDEM3 / Fold change vs veh, EDEM3 / RFU, TMEM33 / Fold change vs veh, TMEM33 / RFU, WDR75 / Fold change vs veh, WDR75 / RFU, AHCTF1 / Fold change vs veh, AHCTF1 / RFU, TFRC / Fold change vs veh, TFRC / RFU, ZDHHC17 / Fold change vs veh, ZDHHC17 / RFU, NOM1 / Fold change vs veh, NOM1 / RFU, ARL8B / Fold change vs veh, ARL8B / RFU, ZBTB11 / Fold change vs veh, ZBTB11 / RFU, TAMM41 / Fold change vs veh, TAMM41 / RFU, KIAA1704 /// LOC100996395 / Fold change vs veh, KIAA1704 /// LOC100996395 / RFU, ING1 / Fold change vs veh, ING1 / RFU, TRMT61B / Fold change vs veh, TRMT61B / RFU, FUBP3 / Fold change vs veh, FUBP3 / RFU, TP53 / Fold change vs veh, TP53 / RFU, TNKS2 / Fold change vs veh, TNKS2 / RFU, ZFP14 / Fold change vs veh, ZFP14 / RFU, ACTR2 / Fold change vs veh, ACTR2 / RFU, PPP3R1 / Fold change vs veh, PPP3R1 / RFU, PIK3R1 / Fold change vs veh, PIK3R1 / RFU, HNRNPA1 / Fold change vs veh, HNRNPA1 / RFU, RNF170 / Fold change vs veh, RNF170 / RFU, ZNF28 / Fold change vs veh, ZNF28 / RFU, RNGTT / Fold change vs veh, RNGTT / RFU, OGT / Fold change vs veh, OGT / RFU, BRD1 / Fold change vs veh, BRD1 / RFU, MARS / Fold change vs veh, MARS / RFU, ZNF655 / Fold change vs veh, ZNF655 / RFU, FAHD1 / Fold change vs veh, FAHD1 / RFU, BDP1 / Fold change vs veh, BDP1 / RFU, LRRCC1 / Fold change vs veh, LRRCC1 / RFU, ARID1A / Fold change vs veh, ARID1A / RFU, ZNF146 / Fold change vs veh, ZNF146 / RFU, ZNF330 / Fold change vs veh, ZNF330 / RFU, GPN3 / Fold change vs veh, GPN3 / RFU, C9orf123 / Fold change vs veh, C9orf123 / RFU, N4BP2L2 / Fold change vs veh, N4BP2L2 / RFU, ARFIP1 / Fold change vs veh, ARFIP1 / RFU, FAM179B / Fold change vs veh, FAM179B / RFU, BCL10 / Fold change vs veh, BCL10 / RFU, UHRF1BP1L / Fold change vs veh, UHRF1BP1L / RFU, BET1 / Fold change vs veh, BET1 / RFU, CNOT2 / Fold change vs veh, CNOT2 / RFU, ZNF268 / Fold change vs veh, ZNF268 / Fold change vs veh, ZNF507 / RFU, DGCR2 / Fold change vs veh, DGCR2 / RFU, WDSUB1 / Fold change vs veh, WDSUB1 / Fold change vs veh, HSP90B1 /// MIR3652 / RFU, ADSS / Fold change vs veh, ADSS / RFU, GK / Fold change vs veh, GK / RFU, ZNF148 / Fold change vs veh, ZNF148 / RFU, TAF9 / Fold change vs veh, TAF9 / RFU, SLC1A5 / Fold change vs veh, SLC1A5 / RFU, SLMO2 / Fold change vs veh, SLMO2 / RFU, ABCC4 / Fold change vs veh, ABCC4 / RFU, LOC101060439 /// RAP1B / Fold change vs veh, LOC101060439 /// RAP1B / RFU, RFX7 / Fold change vs veh, RFX7 / RFU, GTPBP10 / Fold change vs veh, GTPBP10 / RFU, CNEP1R1 / Fold change vs veh, CNEP1R1 / RFU, BIVM-ERCC5 /// ERCC5 / Fold change vs veh, BIVM-ERCC5 /// ERCC5 / RFU, ILF3 / Fold change vs veh, ILF3 / RFU 11762660_at / Fold change /veh 11762660_at / RFU VCAN (11757783_s_at) / Fold change /veh VCAN (11757783_s_at) / RFU DDX43 (11728927_at) / Fold change /veh DDX43 (11728927_at) / RFU KRT8 (11758188_x_at) / Fold change /veh KRT8 (11758188_x_at) / RFU NKD1 (11759106_at) / Fold change /veh NKD1 (11759106_at) / RFU SRD5A1 (11742802_a_at) / Fold change /veh SRD5A1 (11742802_a_at) / RFU TPSAB1 /// TPSB2 (11721975_s_at) / Fold change /veh TPSAB1 /// TPSB2 (11721975_s_at) / RFU GSTM3 (11746129_a_at) / Fold change /veh GSTM3 (11746129_a_at) / RFU IL23R (11737362_x_at) / Fold change /veh IL23R (11737362_x_at) / RFU TMEM51 (11727254_a_at) / Fold change /veh TMEM51 (11727254_a_at) / RFU PIWIL2 (11732686_x_at) / Fold change /veh PIWIL2 (11732686_x_at) / RFU ORM1 (11744905_x_at) / Fold change /veh ORM1 (11744905_x_at) / RFU CCDC152 (11743942_at) / Fold change /veh CCDC152 (11743942_at) / RFU ECM1 (11717891_a_at) / Fold change /veh ECM1 (11717891_a_at) / RFU IL23R (11748794_a_at) / Fold change /veh IL23R (11748794_a_at) / RFU TNFAIP8L3 (11732012_x_at) / Fold change /veh TNFAIP8L3 (11732012_x_at) / RFU MBOAT4 (11741988_at) / Fold change /veh MBOAT4 (11741988_at) / RFU 11764193_at / Fold change /veh 11764193_at / RFU TMEM53 (11763286_at) / Fold change /veh TMEM53 (11763286_at) / RFU MAGEB2 (11727129_at) / Fold change /veh MAGEB2 (11727129_at) / RFU TMEM200A (11744735_a_at) / Fold change /veh TMEM200A (11744735_a_at) / RFU CCDC152 (11751479_a_at) / Fold change /veh CCDC152 (11751479_a_at) / RFU FAM211A (11726209_a_at) / Fold change /veh FAM211A (11726209_a_at) / RFU RGS16 (11746705_a_at) / Fold change /veh RGS16 (11746705_a_at) / RFU VCAN (11755009_s_at) / Fold change /veh VCAN (11755009_s_at) / RFU RHOB (11743442_s_at) / Fold change /veh RHOB (11743442_s_at) / RFU RGS16 (11720943_a_at) / Fold change /veh RGS16 (11720943_a_at) / RFU RGS16 (11720944_at) / Fold change /veh RGS16 (11720944_at) / RFU, VPS4B / Fold change vs veh, VPS4B / RFU, CREB1 / Fold change vs veh, CREB1 / RFU, DNAJC13 / Fold change vs veh, DNAJC13 / RFU, GNAQ / Fold change vs veh, GNAQ / RFU, CDK5R1 / Fold change vs veh, CDK5R1 / RFU, ZRANB3 / Fold change vs veh, ZRANB3 / RFU, CUL4A / Fold change vs veh, CUL4A / RFU, CCNY / Fold change vs veh, CCNY / RFU, UFL1 / Fold change vs veh, UFL1 / RFU, COG3 / Fold change vs veh, COG3 / RFU, DIAPH2 / Fold change vs veh, DIAPH2 / RFU, SKA2 / Fold change vs veh, SKA2 / RFU, AFF3 / Fold change vs veh, AFF3 / RFU, LMF1 / Fold change vs veh, LMF1 / RFU, IPO11 / Fold change vs veh, IPO11 / RFU, DFFB / Fold change vs veh, DFFB / RFU, FOXP1 / Fold change vs veh, FOXP1 / RFU, CARD8 / Fold change vs veh, CARD8 / RFU, STRN3 / Fold change vs veh, STRN3 / RFU, ADK / Fold change vs veh, ADK / RFU, RASSF2 / Fold change vs veh, RASSF2 / RFU, WIPF1 / Fold change vs veh, WIPF1 / RFU, LARP1B / Fold change vs veh, LARP1B / RFU, RASA1 / Fold change vs veh, RASA1 / RFU, RB1 / Fold change vs veh, RB1 / RFU, PPFIA1 / Fold change vs veh, PPFIA1 / RFU, MAT2A / Fold change vs veh, MAT2A / RFU, CCT5 / Fold change vs veh, CCT5 / RFU, WDR92 / Fold change vs veh, WDR92 / RFU, CUX1 / Fold change vs veh, CUX1 / RFU, TTC7A / Fold change vs veh, TTC7A / RFU, TMEM135 / Fold change vs veh, TMEM135 / RFU, DEPTOR / Fold change vs veh, DEPTOR / RFU, CPM / Fold change vs veh, CPM / RFU, DNAJB6 / Fold change vs veh, DNAJB6 / RFU, CACNA2D3 / Fold change vs veh, CACNA2D3 / RFU, DTX4 / Fold change vs veh, DTX4 / RFU, TFCP2 / Fold change vs veh, TFCP2 / RFU, GMCL1 /// GMCL1P1 / Fold change vs veh, GMCL1 /// GMCL1P1 / RFU, AEBP2 / Fold change vs veh, AEBP2 / RFU, SNHG1 /// SNORD22 /// SNORD25 /// SNORD26 /// SNORD27 /// SNORD28 /// SNORD29 /// SNORD31 / Fold change vs veh, SNHG1 /// SNORD22 /// SNORD25 /// SNORD26 /// SNORD27 /// SNORD28 /// SNORD29 /// SNORD31 / Fold change (Aza/veh), C12orf56 (ProbeSet 11735607_a_at) / Fold change (ACY-1035/veh), C12orf56 (ProbeSet 11735607_a_at) / Fold change (Aza/veh), FGFR1OP (ProbeSet 11751329_s_at) / Fold change (ACY-1035/veh), FGFR1OP (ProbeSet 11751329_s_at) / Fold change (Aza/veh), VPS36 (ProbeSet 11739960_a_at) / Fold change (ACY-1035/veh), VPS36 (ProbeSet 11739960_a_at) / RFU SYPL1 (11715823_x_at) / Fold change /veh SYPL1 (11715823_x_at) / RFU IGFBP7 (11715501_s_at) / Fold change /veh IGFBP7 (11715501_s_at) / RFU REEP3 (11722064_at) / Fold change /veh REEP3 (11722064_at) / RFU IGLL1 (11728026_x_at) / Fold change /veh IGLL1 (11728026_x_at): dose or concentration left out as unconfirmed
Conditions: MV-4-11 cells, 48 hours

## Nc1ncn([C@@H]2O[C@H](CO)[C@@H](O)[C@H]2O)c(=O)n1 [azacitidine]
  Fold change /veh ABCC12 (11746883_a_at): 0.93
